In PubChem BioAssay (NCI):
Where “and” joins values, the source holds several entries; their conditions need not be identical. Identical values can stand only once.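 How tested: cells in 96-well plates exposed to compound for 48 hours at five concentrations. GI50 = concentration required for 50% inhibition of growth. TGI is the concentration that stops growth completely.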

What was measured:
Test in all cases: inhibition of tumour cell growth, NCI panel, 48 h
786-0 renal = test system: 786-0 renal
HOP-62 NSCLC = test system: HOP-62 NSCLC
MDA-N = test system: MDA-N
OVCAR-3 ovarian = test system: OVCAR-3 ovarian
OVCAR-8 ovarian = test system: OVCAR-8 ovarian
PC-3 prostate = test system: PC-3 prostate
RPMI-8226 leukemia = test system: RPMI-8226 leukemia
RXF 393 renal = test system: RXF 393 renal
SF-295 CNS = test system: SF-295 CNS
SF-539 CNS = test system: SF-539 CNS

| SMILES | TGI (786-0 renal) [µM] | TGI (HOP-62 NSCLC) | TGI (MDA-N) [µM] | TGI (OVCAR-3 ovarian) | TGI (OVCAR-8 ovarian) | TGI (PC-3 prostate) [µM] | TGI (RPMI-8226 leukemia) | TGI (RXF 393 renal) | TGI (SF-295 CNS) | TGI (SF-539 CNS) | GI50 (HOP-62 NSCLC) [µM] | GI50 (OVCAR-3 ovarian) [µM] | GI50 (OVCAR-8 ovarian) [µM] | GI50 (RPMI-8226 leukemia) [µM] | GI50 (RXF 393 renal) [µM] | GI50 (SF-295 CNS) [µM] | GI50 (SF-539 CNS) [µM] |
| --- | --- | --- | --- | --- | --- | --- | --- | --- | --- | --- | --- | --- | --- | --- | --- | --- | --- |
| CC(=O)NC1C(OCc2ccccc2)OC(CO)C(O)C1OC(C)C(=O)NC(C(=O)NC(CCC(=O)NCCCCNc1c2ccccc2nc2cccc([N+](=O)[O-])c12)C(N)=O)C(C)C (configuration not stated) | 5.45 | 11.7 µM | 3.67 | 6.14 µM | 9.62 µM | > 30.8 | 2.39 µM | 3.56 µM | 43.1 µM | 11.2 µM |  |  |  |  |  |  |  |
| O=C1c2c(O)cccc2-c2nn(CCNCCO)c3ccc(NCCNCCO)c1c23 | 0.895 | 0.63 µM | 1.94 | 5.86 µM | 4.24 µM | 2.16 | 7.65 µM | 1.37 µM | 1.39 µM | 1.1 µM |  |  |  |  |  |  |  |
| CN(C)Cc1cc(C(=O)/C=C/c2ccccc2)cc(CN(C)C)c1O | > 100 | > 100 µM | 35.7 | 99.1 µM | 99.8 µM | 36.9 | 54.3 µM | 71.8 µM | 39.6 µM | 46.5 µM |  |  |  |  |  |  |  |
| CN1C(=O)C(O)C[C@@H]1c1ccccc1 (some centres not stated) | > 100 | > 100 µM | > 100 | > 100 µM | > 100 µM | > 100 | > 100 µM | > 100 µM | > 100 µM | > 100 µM |  |  |  |  |  |  |  |
| CCOP(=O)(O)CN1CCNCCN(CP(=O)(O)OCC)CCNCC1 | > 100 | > 100 µM | > 100 | > 100 µM | > 100 µM | > 100 | > 100 µM | > 100 µM | > 100 µM | > 100 µM |  |  |  |  |  |  |  |
| COc1cc(C2C(Cl)C(=O)N2c2c(C)n(C)n(-c3ccccc3)c2=O)ccc1O (configuration not stated) | 31.6 | 73.2 µM | 32.6 | > 100 µM | 43.9 µM | > 100 | 50.1 µM | 33.6 µM | 50 µM | 39.4 µM |  |  |  |  |  |  |  |
| COc1cccc(N=N/C(=N\NC(=O)c2ccc(C)cc2)c2ccc(N(CCC#N)CCC#N)cc2C)c1 | > 100 | > 100 µM | > 100 | > 100 µM | > 100 µM | > 100 | > 100 µM | > 100 µM | > 100 µM | > 100 µM |  |  |  |  |  |  |  |
| O=C1OC[C@H]2[C@@H]1[C@H]1O[C@@H]2C2=C(CCC2)C1=O | > 100 | > 100 µM | > 100 | > 100 µM | > 100 µM | > 100 | > 100 µM | > 100 µM | > 100 µM | > 100 µM |  |  |  |  |  |  |  |
| CC1=C2C(=CO[C@H](C)[C@H]2C)C(=O)C(C(=O)O)=C1O | 62.7 | 44.2 µM and 79.3 µM | 72.2 | 43.2 µM and 47 µM | 43.3 µM and 35.2 µM | > 85.3 | 63.3 µM and 58.3 µM | 35.8 µM and 48.4 µM | 97.1 µM and 61.3 µM | 30.3 µM and 59.2 µM | 29 | 20.2 | 19.8 | 25.4 | 21.9 | 24.7 | 23.9 |
| CC(C)=CCNc1nc(Cl)nc2nc[nH]c12 | > 100 | 79.2 µM | > 100 | > 100 µM | > 100 µM | > 100 | > 100 µM | 62 µM | > 100 µM | > 100 µM |  |  |  |  |  |  |  |
| C=C=C(CC(CC(=C)Br)(C(=O)OC)C(=O)OC)S(=O)(=O)c1ccccc1 | 2.36 | 12.4 µM | 8.58 | 4.98 µM | 3.44 µM | 4.31 | 4.37 µM | 3.99 µM | 26.9 µM | 3.33 µM |  |  |  |  |  |  |  |
| CCOC(=O)Nn1c(CC#N)nnc1Cc1ccccc1 | > 100 | > 100 µM | > 100 | > 100 µM | > 100 µM | > 100 | > 100 µM | > 100 µM | > 100 µM | > 100 µM |  |  |  |  |  |  |  |
| Cc1c(C(=O)OCc2ccccc2)[n+](=O)c2cc(Cl)c(Cl)cc2n1[O-] | 30.5 | 30.5 µM | 40.7 | 25 µM | 46.5 µM | 55 | 21.2 µM | 36 µM | 37.4 µM | 55.9 µM |  |  |  |  |  |  |  |
| NN=C(CC(O)(C(F)(F)Cl)C(F)(F)Cl)CC(O)(C(F)(F)Cl)C(F)(F)Cl | > 10 | > 10 µM | > 10 | > 10 µM | > 10 µM | > 10 | > 10 µM | > 10 µM | > 10 µM | > 10 µM |  |  |  |  |  |  |  |
| O=c1[nH]n(Cc2ccccc2)c2ccc([N+](=O)[O-])cc12 | > 100 | > 100 µM | 99.6 | > 100 µM | > 100 µM | > 100 | > 100 µM | > 100 µM | > 100 µM | > 100 µM |  |  |  |  |  |  |  |
| CC(C)/C(Cl)=N\OC(NC(=O)P(=O)(c1ccccc1)c1ccccc1)(C(F)(F)F)C(F)(F)F | 22.8 | 32.9 µM | 63.8 | 18.4 µM | 32 µM | 34.4 | 37.5 µM | 34 µM | 79.5 µM | 27.6 µM |  |  |  |  |  |  |  |
